Patent publication US20220363671A1, “GLUE DEGRADERS AND METHODS OF USE THEREOF” (NOVARTIS AG, priority 2019, published 2022)

What was measured:
Type in all cases: cell-based
IKZF1 = target: T1, IKZF1 (Homo sapiens, UniProt Q13422+Q96SW2); experiment: Prolabel quantification of IKZF1 protein levels in GripTite 293 MSR cell line; settings: Pro-label assay; for percent IKZF1 protein reduction at 10 µM: 24 h; for DC50: Ikaros degradation, read-out: IKZF1 EC50
T1 construct: expressed in transfected cells
T1 sequence (Q13422 whole entry, species assumed): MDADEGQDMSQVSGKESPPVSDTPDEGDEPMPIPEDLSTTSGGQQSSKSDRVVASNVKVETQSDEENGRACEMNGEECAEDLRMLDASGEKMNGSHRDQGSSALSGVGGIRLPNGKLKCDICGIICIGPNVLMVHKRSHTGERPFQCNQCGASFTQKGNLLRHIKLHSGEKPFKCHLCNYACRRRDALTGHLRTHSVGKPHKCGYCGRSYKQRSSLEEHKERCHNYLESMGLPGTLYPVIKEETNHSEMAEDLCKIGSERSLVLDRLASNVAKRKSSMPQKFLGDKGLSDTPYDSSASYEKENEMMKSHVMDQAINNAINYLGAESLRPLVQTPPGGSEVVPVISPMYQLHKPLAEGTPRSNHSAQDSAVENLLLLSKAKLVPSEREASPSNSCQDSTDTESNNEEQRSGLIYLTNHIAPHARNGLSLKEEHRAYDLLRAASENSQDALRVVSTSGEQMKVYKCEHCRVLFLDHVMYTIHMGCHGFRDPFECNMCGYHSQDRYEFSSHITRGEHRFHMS
T1 sequence (Q96SW2 whole entry, species assumed): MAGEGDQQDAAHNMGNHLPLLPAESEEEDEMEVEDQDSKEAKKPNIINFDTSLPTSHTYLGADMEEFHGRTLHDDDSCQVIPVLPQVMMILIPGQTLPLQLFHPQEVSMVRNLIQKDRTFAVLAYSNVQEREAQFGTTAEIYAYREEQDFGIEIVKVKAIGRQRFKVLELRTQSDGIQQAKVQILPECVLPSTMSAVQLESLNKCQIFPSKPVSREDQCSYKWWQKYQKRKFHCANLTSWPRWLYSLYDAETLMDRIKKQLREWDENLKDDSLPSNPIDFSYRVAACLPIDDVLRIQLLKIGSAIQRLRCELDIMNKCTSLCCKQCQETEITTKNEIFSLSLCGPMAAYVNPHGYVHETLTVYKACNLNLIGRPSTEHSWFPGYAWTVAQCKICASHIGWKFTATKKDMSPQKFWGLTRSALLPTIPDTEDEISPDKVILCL
T1 sequence (Q16531 whole entry partner, species assumed): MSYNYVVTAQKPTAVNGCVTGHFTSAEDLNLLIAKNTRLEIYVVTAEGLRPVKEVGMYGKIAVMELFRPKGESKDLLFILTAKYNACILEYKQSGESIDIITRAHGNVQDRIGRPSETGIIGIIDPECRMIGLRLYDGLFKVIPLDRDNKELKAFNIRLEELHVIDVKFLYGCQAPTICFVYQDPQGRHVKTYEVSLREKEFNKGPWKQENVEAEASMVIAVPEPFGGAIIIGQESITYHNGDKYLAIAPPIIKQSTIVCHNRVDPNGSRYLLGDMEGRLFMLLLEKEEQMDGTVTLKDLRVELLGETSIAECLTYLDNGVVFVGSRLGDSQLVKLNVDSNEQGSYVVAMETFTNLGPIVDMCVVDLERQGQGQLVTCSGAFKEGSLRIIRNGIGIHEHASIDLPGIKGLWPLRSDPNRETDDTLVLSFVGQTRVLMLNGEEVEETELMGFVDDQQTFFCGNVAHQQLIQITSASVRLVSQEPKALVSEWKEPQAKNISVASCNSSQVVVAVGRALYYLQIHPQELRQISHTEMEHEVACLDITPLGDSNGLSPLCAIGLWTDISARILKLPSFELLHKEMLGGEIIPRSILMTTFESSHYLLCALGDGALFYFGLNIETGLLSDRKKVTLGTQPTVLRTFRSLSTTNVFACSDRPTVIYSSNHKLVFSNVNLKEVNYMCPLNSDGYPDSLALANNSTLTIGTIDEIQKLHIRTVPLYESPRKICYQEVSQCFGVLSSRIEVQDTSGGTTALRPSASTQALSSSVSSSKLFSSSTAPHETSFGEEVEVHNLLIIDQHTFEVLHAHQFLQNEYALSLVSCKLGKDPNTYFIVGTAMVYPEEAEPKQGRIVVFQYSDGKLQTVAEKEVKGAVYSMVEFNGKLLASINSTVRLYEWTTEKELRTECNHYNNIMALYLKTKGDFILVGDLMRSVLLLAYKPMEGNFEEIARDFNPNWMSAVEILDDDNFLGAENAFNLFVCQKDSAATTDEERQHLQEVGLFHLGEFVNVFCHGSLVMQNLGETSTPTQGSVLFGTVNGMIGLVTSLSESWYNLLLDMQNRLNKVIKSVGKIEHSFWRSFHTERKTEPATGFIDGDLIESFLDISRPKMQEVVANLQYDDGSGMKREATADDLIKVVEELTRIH
Source text: (§1) Example 18: Prolabel Quantification of IKZF1, GSPT1, or SALL4 protein levels in GripTite™ 293 MSR Cell line
(§2) The Prolabel system from DiscoverX was used to develop high-throughput and quantitative assays to measure changes in IKZF1, GSPT1, and SALL4 protein levels in response to compounds. The prolabel tag is derived from the alpha fragment of beta galactosidase and has the following protein sequence: mssnslavvlgrrdwenpgvtglnrlaahppfaswrnseeartdrpsqqlrsinge (SEQ ID NO. 1). The complementary fragment of beta-galactosidase (from DiscoverX), is added to the prolabel tag to form an active beta galactosidase enzyme whose activity can be precisely measured. In this way, the levels of a fusion protein with the prolabel tag can be quantified in cell lysates.
(§3) Lentiviral vectors, based on the Invitrogen pLenti6.2/V5 DEST backbone, were constructed that placed the prolabel tag upstream of IKZF1, GSPT1, or SALL4 and expressed the fusion protein from a CMV promoter.
(§4) To ensure moderate and consistent expression of the prolabel fusion proteins across all cells in the population, stable cell lines were constructed from cells expressing a single copy of the construct. Lentivirus packaged with the constructs was made using the Virapower kit from Invitrogen. Strongly adherent 293GT cell, GripTite 293 MSR cells from Thermo Fisher Scientific (Catalog number: R79507), were infected with the virus at low multiplicity of infection and selected by 5 μg/mL blasticidin for 2 weeks.
(§5) The levels of prolabel tagged fusion proteins in compound treated cell lines were measured as follows:
(§6) Day 1, Cells were diluted to 1.0×10^6 cells/mL in normal growth medium. 17.5 μL of cells were plated in each well of a solid white 384 well plate. Plates were incubated overnight in a 37° C. tissue culture incubator.
(§7) Day 2, Serial dilutions of compounds were made in 384 well plates from 10 mM stocks. 15 μL of DMSO was added to each well of a 384 well plate. In the first column, 15 μL of stock compound was added. The solution was mixed and 15 μL was transferred to the next column. This was repeated until 20 two-fold dilutions were prepared. 2.5 μL of the diluted compounds were transferred into 60 μL of cell culture medium in another 384 well plate, and mixed well. 2.5 μL of this mixture was added to the plated cells. The final DMSO concentration was 0.5% and the highest concentration of compound was 50 μM. Plates were incubated overnight (e.g., about 14 h, 18 h, or 24 h) in a 37° C. tissue culture incubator.
(§8) Day 3, Plates were removed from the incubator and allowed to equilibrate at room temperature for 30 minutes. Prolabel substrate (DiscoverX PathHunter Prolabel Detection Kit, User manual: 93-0180) was added as described by the manufacturers protocols. Plates were incubated at room temperature for three hours and luminescence was read using an Envision reader (Perkin Elmer) Data was analyzed and visualized using the Spotfire software package.

GSPT1 = target: T2, GSPT1 (Homo sapiens, UniProt P15170+Q96SW2); experiment: Prolabel quantification of GSPT1 protein levels in GripTite 293 MSR cell line; settings: Pro-label assay; for DC50: GSPT1 degradation, read-out: GSPT1 EC50
T2 construct: expressed in transfected cells
T2 sequence (P15170 whole entry, species assumed): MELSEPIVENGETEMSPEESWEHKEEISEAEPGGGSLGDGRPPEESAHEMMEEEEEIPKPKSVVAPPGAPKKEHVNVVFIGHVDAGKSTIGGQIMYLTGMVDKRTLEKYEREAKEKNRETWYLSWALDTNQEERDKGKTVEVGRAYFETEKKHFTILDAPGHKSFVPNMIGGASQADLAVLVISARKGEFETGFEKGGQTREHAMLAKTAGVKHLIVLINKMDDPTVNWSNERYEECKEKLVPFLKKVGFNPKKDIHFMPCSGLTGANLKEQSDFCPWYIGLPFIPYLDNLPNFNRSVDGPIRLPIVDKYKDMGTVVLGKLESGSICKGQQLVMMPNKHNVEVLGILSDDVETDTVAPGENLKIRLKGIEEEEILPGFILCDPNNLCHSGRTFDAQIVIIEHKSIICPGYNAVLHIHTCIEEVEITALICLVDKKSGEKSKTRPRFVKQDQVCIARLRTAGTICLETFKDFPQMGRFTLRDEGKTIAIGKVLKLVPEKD
T2 sequence (Q96SW2 whole entry, species assumed): as the sequence (Q96SW2 whole entry, species assumed) above
T2 sequence (Q16531 whole entry partner, species assumed): as the sequence (Q16531 whole entry partner, species assumed) above
Source text: as §1, §2, §3, §4, §5, §6, §7
as §8, with “Prolabel substrate (DiscoverX PathHunter Prolabel Detection Kit, User manual: 93-0180) was added as described by the manufacturers protocols.” left out

SALL4 = target: T3, SALL4 (Homo sapiens, UniProt Q96SW2+Q9UJQ4); experiment: Prolabel quantification of SALL4 protein levels in GripTite 293 MSR cell line; settings: Pro-label assay
T3 construct: expressed in transfected cells
T3 sequence (Q9UJQ4 whole entry, species assumed): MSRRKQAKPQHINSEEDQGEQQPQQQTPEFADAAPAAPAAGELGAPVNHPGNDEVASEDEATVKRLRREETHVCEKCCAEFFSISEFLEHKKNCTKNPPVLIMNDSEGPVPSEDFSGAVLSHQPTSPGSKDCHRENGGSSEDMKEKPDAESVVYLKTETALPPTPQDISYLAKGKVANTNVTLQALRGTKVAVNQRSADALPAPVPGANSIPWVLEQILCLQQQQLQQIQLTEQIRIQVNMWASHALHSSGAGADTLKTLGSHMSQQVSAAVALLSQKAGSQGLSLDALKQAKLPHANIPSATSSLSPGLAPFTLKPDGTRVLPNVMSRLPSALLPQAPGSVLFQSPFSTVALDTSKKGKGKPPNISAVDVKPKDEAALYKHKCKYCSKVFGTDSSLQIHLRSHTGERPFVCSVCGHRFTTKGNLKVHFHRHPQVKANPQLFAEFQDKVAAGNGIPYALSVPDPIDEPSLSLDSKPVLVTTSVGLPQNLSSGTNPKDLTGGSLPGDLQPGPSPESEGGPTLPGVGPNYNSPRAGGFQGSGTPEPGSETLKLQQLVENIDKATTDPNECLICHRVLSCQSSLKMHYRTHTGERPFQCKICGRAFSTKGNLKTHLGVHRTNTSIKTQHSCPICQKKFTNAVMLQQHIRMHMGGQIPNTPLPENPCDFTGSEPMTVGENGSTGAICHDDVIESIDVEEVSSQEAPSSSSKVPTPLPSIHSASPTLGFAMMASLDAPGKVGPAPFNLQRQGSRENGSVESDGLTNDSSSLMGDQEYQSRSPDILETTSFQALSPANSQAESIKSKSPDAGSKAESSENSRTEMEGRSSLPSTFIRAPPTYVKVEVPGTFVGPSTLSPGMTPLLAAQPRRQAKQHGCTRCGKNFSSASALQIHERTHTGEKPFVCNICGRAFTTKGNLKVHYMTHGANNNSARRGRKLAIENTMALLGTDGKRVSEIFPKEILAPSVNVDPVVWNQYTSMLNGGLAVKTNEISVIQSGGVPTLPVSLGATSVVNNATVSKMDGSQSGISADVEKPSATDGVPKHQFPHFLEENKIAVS
T3 sequence (Q96SW2 whole entry, species assumed): as the sequence (Q96SW2 whole entry, species assumed) above
T3 sequence (Q16531 whole entry partner, species assumed): as the sequence (Q16531 whole entry partner, species assumed) above
Source text: as §1, §2
Lentiviral vectors, based on the Invitrogen pLenti6.2/V5 DEST backbone, were constructed that placed the prolabel tag upstream of IKZF1, GSPT1, or SALL4 and expressed the fusion protein from a CMV promoter. […]
The levels of prolabel tagged fusion proteins in compound treated cell lines were measured as follows: […]
as §8, with “Prolabel substrate (DiscoverX PathHunter Prolabel Detection Kit, User manual: 93-0180) was added as described by the manufacturers protocols.” left out

`O=C1CCN(c2coc3ccc(NC(=O)Oc4ccccc4)cc23)C(=O)N1` [Compound I-6, Phenyl (3-(2,4-dioxotetrahydropyrimidin-1(2H)-yl)benzofuran-5-yl)carbamate] was tested. Which percent IKZF1 protein reduction at 10 µM (IKZF1) did it give?
Its percent IKZF1 protein reduction at 10 µM is 75%.

And the DC50 (IKZF1)?
The DC50 was 0.12 µM.

`C#Cc1ccc2c(N3CCC(=O)NC3=O)coc2c1` [Compound I-2, 1-(6-Ethynylbenzofuran-3-yl)dihydropyrimidine-2,4(1H,3H)-dione] was tested. Which percent IKZF1 protein reduction at 10 µM (IKZF1) did it give?
The percent IKZF1 protein reduction at 10 µM was > 90%.

And the DC50 (IKZF1)?
Its DC50 is 0.06 µM.

Which percent IKZF1 protein reduction at 10 µM (IKZF1) does the source give for `O=c1ccn(-c2cnc3cc(C4=CCN(Cc5ccccc5)CC4)ccn23)c(=O)[nH]1` [Compound I-17, 1-(7-(1-Benzyl-1,2,3,6-tetrahydropyridin-4-yl)imidazo[1,2-a]pyridin-3-yl)pyrimidine-2,4(1H,3H)-dione] here?
Its percent IKZF1 protein reduction at 10 µM is 80%.

What about the DC50 (IKZF1) of the same compound?
Its DC50 is 0.43 µM.

With `O=c1ccn(-c2cnc3ccc(C4CCN(Cc5ccccc5)CC4)cc3c2)c(=O)[nH]1` [Compound I-16, 1-(6-(1-benzylpiperidin-4-yl)quinolin-3-yl)pyrimidine-2,4(1H,3H)-dione] as the compound, how does the DC50 (IKZF1) read?
Its DC50 is > 20 µM.

`CN(C)CC#Cc1ccc2c(N3CCC(=O)NC3=O)coc2c1` [Compound I-11, 1-(6-(3-(dimethylamino)prop-1-yn-1-yl)benzofuran-3-yl)dihydropyrimidine-2,4(1H,3H)-dione] was tested. Which percent IKZF1 protein reduction at 10 µM (IKZF1) did it give?
The percent IKZF1 protein reduction at 10 µM was > 90%.

What about the DC50 (IKZF1) of the same compound?
The DC50 was 0.046 µM.

What does the source list for `O=C1CCN(c2cnn3cc(Cl)ccc23)C(=O)N1` [Compound I-7, 1-(6-Chloropyrazolo[1,5-a]pyridin-3-yl)dihydropyrimidine-2,4(1H,3H)-dione]?
percent IKZF1 protein reduction at 10 µM (IKZF1): > 90%; DC50 (IKZF1): 0.006 µM

With `O=C1CCN(c2cnc3cc(C4=CCN(Cc5ccccc5)CC4)ccn23)C(=O)N1` [Compound I-8, 1-(7-(1-Benzyl-1,2,3,6-tetrahydropyridin-4-yl)imidazo[1,2-a]pyridin-3-yl)dihydropyrimidine-2,4(1H,3H)-dione] as the compound, how does the percent IKZF1 protein reduction at 10 µM (IKZF1) read?
Its percent IKZF1 protein reduction at 10 µM is > 90%.

And the DC50 (IKZF1)?
The DC50 was 0.041 µM.

Which results are given for `CC(C)(C)c1ccc(C(=O)N2CC=C(c3ccn4c(N5CCC(=O)NC5=O)cnc4c3)CC2)cc1` [Compound I-9, 1-(7-(1-(4-(tert-Butyl)benzoyl)-1,2,3,6-tetrahydropyridin-4-yl)imidazo[1,2-a]pyridin-3-yl)dihydropyrimidine-2,4(1H,3H)-dione]?
GSPT1 % protein reduction at 10 μM, 24 h (GSPT1): 80%; DC50 (GSPT1): 0.17 µM

`O=C1CCN(c2coc3ccc(I)cc23)C(=O)N1` [Compound I-4, 1-(5-Iodobenzofuran-3-yl)dihydropyrimidine-2,4(1H,3H)-dione] was tested. Which percent IKZF1 protein reduction at 10 µM (IKZF1) did it give?
Its percent IKZF1 protein reduction at 10 µM is 60%.

What about the DC50 (IKZF1) of the same compound?
The DC50 was 0.051 µM.

With `O=C1CCN(c2coc3ccccc23)C(=O)N1` [Compound I-1, 1-(Benzofuran-3-yl)dihydropyrimidine-2,4(1H,3H)-dione] as the compound, how does the percent IKZF1 protein reduction at 10 µM (IKZF1) read?
The percent IKZF1 protein reduction at 10 µM was 75%.

What about the DC50 (IKZF1) of the same compound?
The DC50 was 0.057 µM.

How did the percent IKZF1 protein reduction at 10 µM (IKZF1) turn out when `Cc1ccc(CCOc2ccc3c(N4CCC(=O)NC4=O)noc3c2)cc1` [Compound I-15, 1-(6-(4-Methylphenethoxy)benzo[d]isoxazol-3-yl)dihydropyrimidine-2,4(1H,3H)-dione] was run?
Its percent IKZF1 protein reduction at 10 µM is 80%.

And the DC50 (IKZF1)?
Its DC50 is 0.63 µM.

`O=C1CCN(c2coc3cc(C(=O)NCc4ccccc4)ccc23)C(=O)N1` [Compound I-12, N-benzyl-3-(2,4-dioxotetrahydropyrimidin-1(2H)-yl)benzofuran-6-carboxamide] was tested. Which DC50 (IKZF1) did it give?
The DC50 was > 20 µM.

How did the “SALL4 % protein Reduction at 10 μM, 24 h” value (SALL4) turn out when `O=C1CCN(c2cnc3ccc(C4CCN(Cc5ccccc5)CC4)cn23)C(=O)N1` [Compound I-10, 1-(6-(1-Benzylpiperidin-4-yl)imidazo[1,2-a]pyridin-3-yl)dihydropyrimidine-2,4(1H,3H)-dione] was run?
Its value is 60%.

What about the “GSPT1 % protein reduction at 10 μM, 24 h” value (GSPT1) of the same compound?
The value was 80%.

What about the DC50 (GSPT1) of the same compound?
Its DC50 is 0.17 µM.

`O=c1ccn(-c2cnc3cc(Br)ccn23)c(=O)[nH]1` [Compound I-18, 1-(7-Bromoimidazo[1,2-a]pyridin-3-yl)pyrimidine-2,4(1H,3H)-dione] was tested. Which percent IKZF1 protein reduction at 10 µM (IKZF1) did it give?
Its percent IKZF1 protein reduction at 10 µM is 40%.

Which results are given for `O=C1CCN(c2coc3cc(I)ccc23)C(=O)N1` [Compound I-5, 1-(6-Iodobenzofuran-3-yl)dihydropyrimidine-2,4(1H,3H)-dione]?
SALL4 % protein Reduction at 10 μM, 24 h (SALL4): 60%; percent IKZF1 protein reduction at 10 µM (IKZF1): > 90%; DC50 (IKZF1): 0.13 µM

For `Cc1ccc2occ(N3CCC(=O)NC3=O)c2c1` [Compound I-3, 1-(5-Methylbenzofuran-3-yl)dihydropyrimidine-2,4(1H,3H)-dione], which percent IKZF1 protein reduction at 10 µM (IKZF1) is on record?
Its percent IKZF1 protein reduction at 10 µM is > 90%.

And the DC50 (IKZF1)?
The DC50 was 0.016 µM.

What does the source list for `O=C1CCN(c2noc3ccc(Cl)cc23)C(=O)N1` [Compound I-14, 1-(5-Chlorobenzo[d]isoxazol-3-yl)dihydropyrimidine-2,4(1H,3H)-dione]?
percent IKZF1 protein reduction at 10 µM (IKZF1): > 90%; DC50 (IKZF1): 0.025 µM

What does the source list for `Cc1ccc2c(N3CCC(=O)NC3=O)noc2c1` [Compound I-13, 1-(6-Methylbenzo[d]isoxazol-3-yl)dihydropyrimidine-2,4(1H,3H)-dione]?
percent IKZF1 protein reduction at 10 µM (IKZF1): > 90%; DC50 (IKZF1): 0.006 µM
